Measurements as given in patent US9988430B2, “Stable GLP-1 based GLP-1/glucagon receptor co-agonists” (Novo Nordisk A/S, priority 2014, dated 2018).
*1 amine or outer side, *2 acyl side, *3 side chain or, on linkers, in order; H or OH if unused. Where a SMILES comes first, the peptide text is derived from it. Bridges are numbered along the chain shown (N, C = ends). Roman numbers before positions name the chains, in order. Side-chain parts run from the residue outwards. [ ]: non-standard residue; d: D form. The star is where a group is joined. C18 diacid = O=C(O)CCCCCCCCCCCCCCCCC(=O)*; γGlu = O=C(O)[C@H](CCC(=O)[*:2])N[*:1]; Desaminohistidyl = O=C(CCc1c[nH]cn1)*; Ac4c = NC1(C(=O)O)CCC1; AEEA = NCCOCCOCC(=O)O; Aib = CC(C)(N)C(=O)O

biological target: T1, human GLP-1 receptor (Homo sapiens, UniProt P43220); test: Assay (II)(a): GLP-1 receptor binding, [125I]GLP-1 displacement, SPA on BHK membranes; conditions: displacement of [125I]GLP-1, membranes with human GLP-1 receptor; read-out: IC50 GLP-1R
T1 construct: expressed in transfected cells; host or cells: membranes of BHK cells, parent line BHKTS13, clone FCW467-12A
Experimental: Assay (II): GLP-1 and Glucagon Receptor Binding The purpose of this assay is to test the in vitro receptor binding activity of the GLP-1 derivatives of the invention. (a) GLP-1 Receptor Binding The GLP-1 receptor (GLP-1R) binding is a measure of the affinity of a derivative for the human GLP-1 receptor. The GLP-1 receptor binding of each derivatives were determined with competitive binding, displacing [^125I]GLP-1 bound to GLP-1 receptors expressed in cell membranes associated with wheat germ agglutinin (WGA) scintillation proximity assay (SPA) beads. Each derivative was added in a series of concentrations to isolated membranes comprising the human GLP-1 receptor and displacement of the labelled radioligand was monitored. The receptor binding was reported as the concentration at which half of the labelled ligand is displaced from the receptor, the IC^50 value. The following chemicals were used in the assay: MEM w/o phenol red (Gibco 11880-028), Pen/strep (Invitrogen 15140-122), G418 (Invitrogen 10131-027), 1 M Hepes (Gibco 15630), EDTA (Invitrogen 15575-038), PBS (Invitrogen 14190-094), fetal calf serum (Invitrogen 16140-071), EGTA, MgCl2 (Merck 1.05832.1000), Tween 20 (Amresco 0850C335), SPA particles (wheat germ agglutinin (WGA) SPA beads, Perkin Elmer RPNQ0001), [125I]-GLP-1]-(7-36)NH2 (produced in-house), OptiPlate™-96 (Perkin Elmer). Buffer 1 consisted of 20 mM Na-HEPES plus 10 mM EDTA and pH was adjusted to 7.4. Buffer 2 consisted of 20 mM Na-HEPES plus 0.1 mM EDTA and pH was adjusted to 7.4. Assay buffer consisted of 50 mM HEPES supplemented with 5 mM EGTA, 5 mM MgCl2, 0.005% Tween 20 and pH was adjusted to 7.4. A 0.02% albumin stock consisted of HSA dissolved at 0.02% (w/v) in assay buffer. The cells used in this assay (clone FCW467-12A) were BHK cells with BHKTS13 as a parent cell line. The cells express the human GLP-1 receptor. The cells were grown at 5% CO2 in DMEM, 10% fetal calf serum, 1% Pen/Strep (Penicillin/Streptomycin) and 1.0 mg/ml of the selection marker G418. To make a membrane preparation the cells were grown to approximately 80% confluence. The cells were washed twice in phosphate-buffered saline and harvested. The cells were pelleted using a brief centrifugation and the cell pellet was kept on ice. The cell pellet was homogenised with ULTRA-THURRAX dispersing instrument for 20-30 seconds in a suitable amount of buffer 1 (e.g., 10 ml). The homogenate was centrifuged for 15 minutes. The pellet was re-suspended (homogenised) in 10 ml buffer 2 and centrifuged. This step was repeated once more. The resulting pellet was re-suspended in buffer 2 and the protein concentration was determined. The membranes were aliquoted and stored at minus 80° C. • 1. For the receptor binding assay 50 μl of the assay buffer was added to each well of an assay plate. • 2. Test compounds were serially diluted to give the following concentrations: 8×10EE-7 M, 8×10EE-8 M, 8×10EE-9 M, 8×10EE-10 M, 8×10EE-11 M, 8×10EE-12 M and 8×10EE-13 M. Twenty-five μl were added to appropriate wells in the assay plate. • 3. Cell membrane aliquots were thawed and diluted to their working concentration. Fifty μl were added to each well in the assay plate. • 4. WGA SPA beads were suspended in assay buffer at 20 mg/ml. The suspension was diluted to 10 mg/ml in assay buffer just prior to addition to the assay plate. Fifty μl were added to each well in the assay plate. • 5. The incubation was started by adding 25 μl of 480 pM solution of [125I]-GLP-1]-(7-36)NH2 to each well of the assay plate. A 25 μl aliquot was reserved for measuring total counts/well. • 6. The assay plate was incubated for 2 h at 30° C. • 7. The assay plate was centrifuged for 10 min. • 8. The assay plate was read in a Perkin Elmer TopCount NXT instrument. Calculations The data from the TopCount instrument were transferred to GraphPad Prism software. The software averaged the values for the replicates and performed a non-linear regression. IC50 values were calculated by the software and reported in nM. […]

T1 sequence (P43220 24-463): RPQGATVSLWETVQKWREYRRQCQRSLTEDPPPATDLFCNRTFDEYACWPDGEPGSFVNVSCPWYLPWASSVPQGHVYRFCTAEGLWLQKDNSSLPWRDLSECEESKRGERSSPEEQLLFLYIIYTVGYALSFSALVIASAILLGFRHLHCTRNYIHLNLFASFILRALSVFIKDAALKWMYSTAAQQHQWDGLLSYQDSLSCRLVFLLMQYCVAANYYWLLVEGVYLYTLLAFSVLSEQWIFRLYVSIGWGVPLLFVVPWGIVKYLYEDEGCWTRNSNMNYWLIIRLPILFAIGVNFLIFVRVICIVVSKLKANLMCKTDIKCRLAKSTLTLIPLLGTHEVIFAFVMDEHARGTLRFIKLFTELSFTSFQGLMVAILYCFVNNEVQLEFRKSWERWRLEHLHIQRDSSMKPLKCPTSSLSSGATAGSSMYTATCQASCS

| IC50 [nM] | Structure (SMILES) |
| --- | --- |
| 0.1 | CC[C@H](C)[C@H](NC(=O)[C@H](Cc1ccccc1)NC(=O)[C@H](CCC(=O)O)NC(=O)[C@H](CCCNC(=N)N)NC(=O)[C@H](C)NC(=O)[C@H](C)NC(=O)[C@H](CCC(N)=O)NC(=O)[C@H](CCC(=O)O)NC(=O)[C@H](CCC(=O)O)NC(=O)[C@H](CC(C)C)NC(=O)[C@H](Cc1ccc(O)cc1)NC(=O)[C@H](CCCCN)NC(=O)[C@H](CO)NC(=O)[C@@H](NC(=O)[C@H](CC(=O)O)NC(=O)[C@H](CO)NC(=O)[C@@H](NC(=O)[C@H](Cc1ccccc1)NC(=O)[C@@H](NC(=O)CNC(=O)[C@H](Cc1c[nH]cn1)NC(=O)C1(NC(=O)CCc2c[nH]cn2)CCC1)[C@@H](C)O)[C@@H](C)O)C(C)C)C(=O)N[C@@H](C)C(=O)N[C@@H](Cc1c[nH]c2ccccc12)C(=O)N[C@@H](CC(C)C)C(=O)N[C@@H](CC(C)C)C(=O)N[C@@H](CCCCN)C(=O)N[C@@H](CCCCNC(=O)CNC(=O)[C@H](CO)NC(=O)[C@H](CCC(=O)O)NC(=O)CNC(=O)[C@H](CO)NC(=O)CC[C@H](NC(=O)CC[C@H](NC(=O)CCCCCCCCCCCCCCCCC(=O)O)C(=O)O)C(=O)O)C(N)=O [Example 2, N^ε35-[2-[[(2S)-2-[[(2S)-4-carboxy-2-[[2-[[(2S)-2-[[(4S)-4-carboxy-4-[[(4S)-4-carboxy-4-(17-carboxyheptadecanoylamino)butanoyl]amino]butanoyl]amino]-3-hydroxypropanoyl]amino]acetyl]amino]butanoyl]amino]-3-hydroxypropanoyl]amino]acetyl]-[Imp7,Acb8,His9,Lys18,Glu22,Arg26,Leu33,Lys35]-GLP-1-(7-35)-peptide amide] (I: Desaminohistidyl-[Ac4c]HGTFTSDVSKYLEEQAAREFIAWLLKK-NH2 / II: {C18 diacid-γGlu-γGlu}-SGESG; amide I:28-II:C) |
| 0.9 | CC[C@H](C)[C@H](NC(=O)[C@H](Cc1ccccc1)NC(=O)[C@H](CCC(=O)O)NC(=O)[C@H](CCCNC(=N)N)NC(=O)[C@H](C)NC(=O)[C@H](C)NC(=O)[C@H](CCCNC(=N)N)NC(=O)CNC(=O)[C@H](CCC(=O)O)NC(=O)[C@H](CC(C)C)NC(=O)[C@H](Cc1ccc(O)cc1)NC(=O)[C@H](CCCCN)NC(=O)[C@H](CO)NC(=O)[C@@H](NC(=O)[C@H](CC(=O)O)NC(=O)[C@H](CO)NC(=O)[C@@H](NC(=O)[C@H](Cc1ccccc1)NC(=O)[C@@H](NC(=O)CNC(=O)[C@H](Cc1c[nH]cn1)NC(=O)[C@H](C)NC(=O)CCc1c[nH]cn1)[C@@H](C)O)[C@@H](C)O)C(C)C)C(=O)N[C@@H](C)C(=O)N[C@@H](Cc1c[nH]c2ccccc12)C(=O)N[C@@H](CC(C)C)C(=O)N[C@@H](CC(C)C)C(=O)N[C@@H](CCCCNC(=O)COCCOCCNC(=O)COCCOCCNC(=O)CC[C@H](NC(=O)CC[C@H](NC(=O)CC[C@H](NC(=O)CCCCCCCCCCCCCCCCC(=O)O)C(=O)O)C(=O)O)C(=O)O)C(=O)NCC(=O)NCC(=O)NCC(=O)O [Example 11, N^ε34-[2-[2-[2-[[2-[2-[2-[[(4S)-4-carboxy-4-[[(4S)-4-carboxy-4-[[(4S)-4-carboxy-4-(17-carboxyheptadecanoylamino)butanoyl]amino]butanoyl]amino]butanoyl]amino]ethoxy]ethoxy]acetyl]amino]ethoxy]ethoxy]acetyl]-[Imp7,His9,Lys18,Arg23,Arg26,Leu33,Gly36]-GLP-1-(7-37)-peptide] (Desaminohistidyl-AHGTFTSDVSKYLEGRAAREFIAWLLK([AEEA-AEEA-γGlu-γGlu-γGlu-C18 diacid])GGG-OH) |
| 3.2 | CC[C@H](C)[C@H](NC(=O)[C@H](Cc1ccccc1)NC(=O)[C@H](CCC(=O)O)NC(=O)[C@H](CCCNC(=N)N)NC(=O)[C@H](C)NC(=O)[C@H](C)NC(=O)[C@H](CCC(N)=O)NC(=O)[C@H](CCC(=O)O)NC(=O)[C@H](CCC(=O)O)NC(=O)[C@H](CC(C)C)NC(=O)[C@H](Cc1ccc(O)cc1)NC(=O)[C@H](CCCCN)NC(=O)[C@H](CO)NC(=O)[C@H](Cc1ccc(O)cc1)NC(=O)[C@H](CC(=O)O)NC(=O)[C@H](CO)NC(=O)[C@@H](NC(=O)[C@H](Cc1ccccc1)NC(=O)[C@@H](NC(=O)CNC(=O)[C@H](Cc1c[nH]cn1)NC(=O)C(C)(C)NC(=O)CCc1c[nH]cn1)[C@@H](C)O)[C@@H](C)O)C(=O)N[C@@H](C)C(=O)N[C@@H](Cc1c[nH]c2ccccc12)C(=O)N[C@@H](CC(C)C)C(=O)N[C@@H](CC(C)C)C(=O)N[C@@H](CCCCN)C(=O)NCC(=O)N[C@@H](CCCCNC(=O)CNC(=O)[C@H](CO)NC(=O)[C@H](CCC(=O)O)NC(=O)CNC(=O)[C@H](CO)NC(=O)CC[C@H](NC(=O)CC[C@H](NC(=O)CCCCCCCCCCCCCCCCC(=O)O)C(=O)O)C(=O)O)C(=O)NCC(=O)O [Example 14, N^ε36-[2-[[(2S)-2-[[(2S)-4-carboxy-2-[[2-[[(2S)-2-[[(4S)-4-carboxy-4-[[(4S)-4-carboxy-4-(17-carboxyheptadecanoylamino)butanoyl]amino]butanoyl]amino]-3-hydroxypropanoyl]amino]acetyl]amino]butanoyl]amino]-3-hydroxypropanoyl]amino]acetyl]-[Imp7,Aib8,His9,Tyr16,Lys18,Glu22,Arg26,Leu33,Lys36]-GLP-1-(7-37)-peptide] (I: Desaminohistidyl-[Aib]HGTFTSDYSKYLEEQAAREFIAWLLKGKG-OH / II: {C18 diacid-γGlu-γGlu}-SGESG; amide I:29-II:C) |
| 2.3 | CC[C@H](C)[C@H](NC(=O)[C@H](Cc1ccccc1)NC(=O)[C@H](CCC(=O)O)NC(=O)[C@H](CCCNC(=N)N)NC(=O)[C@H](C)NC(=O)[C@H](C)NC(=O)[C@H](CCC(N)=O)NC(=O)[C@H](CCC(=O)O)NC(=O)[C@H](CCC(=O)O)NC(=O)[C@H](CC(C)C)NC(=O)[C@H](Cc1ccc(O)cc1)NC(=O)[C@H](CCCCN)NC(=O)[C@H](CO)NC(=O)[C@@H](NC(=O)[C@H](CC(=O)O)NC(=O)[C@H](CO)NC(=O)[C@@H](NC(=O)[C@H](Cc1ccccc1)NC(=O)[C@@H](NC(=O)CNC(=O)[C@H](Cc1c[nH]cn1)NC(=O)C(C)(C)NC(=O)CCc1c[nH]cn1)[C@@H](C)O)[C@@H](C)O)C(C)C)C(=O)N[C@@H](C)C(=O)N[C@@H](Cc1c[nH]c2ccccc12)C(=O)N[C@@H](CC(C)C)C(=O)N[C@@H](CC(C)C)C(=O)N[C@@H](CCCCNC(=O)CC[C@H](NC(=O)CC[C@H](NC(=O)[C@H](CO)NC(=O)CNC(=O)[C@H](CCC(=O)O)NC(=O)[C@H](CO)NC(=O)CNC(=O)CCCCCCCCCCCCCCCCC(=O)O)C(=O)O)C(=O)O)C(=O)N[C@H](C(=O)O)[C@@H](C)O [Example 27, N^ε34-[(4S)-4-carboxy-4-[[(4S)-4-carboxy-4-[[(2S)-2-[[2-[[(2S)-4-carboxy-2-[[(2S)-2-[[2-(17-carboxyheptadecanoylamino)acetyl]amino]-3-hydroxypropanoyl]amino]butanoyl]amino]acetyl]amino]-3-hydroxypropanoyl]amino]butanoyl]amino]butanoyl]-[Imp7,Aib8,His9,Lys18,Glu22,Arg26,Leu33,Thr35]-GLP-1-(7-35)-peptide] (I: Desaminohistidyl-[Aib]HGTFTSDVSKYLEEQAAREFIAWLLKT-OH / II: {C18 diacid}-GSEGS[γGlu][γGlu]; amide I:27-II:C) |
